pIC50: −log10 of the molar value. The source made the active and inactive calls.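 How the source made its calls: active means averaged IC50 for reducing per-cell lipid droplet stain intensity under a set limit; inactive means the rest.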

We go through 20 compounds from PubChem BioAssay AID493092 (Sanford-Burnham Center for Chemical Genomics, 2011).

For the assay, the system named is AML12 mouse hepatocytes, BODIPY lipid droplet imaging. Briefly: lipid droplet accumulation inhibition in liver cells – imaging, AML12 mouse hepatocytes, BODIPY staining, SAR follow-up (AID 493092). The note with it: cells fed 100 µM oleate overnight.
Consider `Cc1ccccc1C(=O)NCC(=O)NCCC(c1ccccc1)c1ccccc1`, for which the IC50 (as a rule, the point on the concentration scale where inhibition reaches its midpoint) is > 32000 nM (inactive). In the case of `CCOc1ccc(CCNC(=O)COC(=O)c2cc(OC)cc(OC)c2)cc1OCC`, the pIC50 (commonly −log10 of the IC50, conventionally taken in molar units) was 6.13. Consider `CCOc1ccc(CCNC(=O)Cn2cccc2C(=O)c2ccccc2)cc1OCC`, for which the negative-log IC50 (pIC50) is 6.37. In the case of `CCOc1ccc(CCNC(=O)c2cc(-c3ccccc3)c(N3CCOCC3)s2)cc1OCC`, the negative-log IC50 (pIC50) was more than 7.20. As for `CCOc1ccc(CCNC(=O)c2nnc(Cc3ccc(F)cc3)o2)cc1OCC`, the pIC50 was 6.27. For the compound `CCOc1ccc(CCNC(=O)CCC(=O)N2CCOc3ccc(C)cc32)cc1OCC`, the pIC50 was 6.53. On to `CCCc1ccc(-c2csc(NC(=O)Cc3cccs3)n2)cc1`, for which the pIC50 is 6.29.

As to `COc1ccccc1NS(=O)(=O)c1ccc(NN=Cc2c(C)nn(-c3ccccc3)c2N2CCCC2)c([N+](=O)[O-])c1`, the pIC50 was 6.05. `COc1ccc(C(=O)OC(C)C(=O)NC(C)CCc2ccccc2)cc1[N+](=O)[O-]` (stereo not given): the pIC50 was 6.58. Regarding `Cc1cc(N2CCOCC2)n2nc(C)c(-c3ccccc3Cl)c2n1`, the pIC50 is 6.39. On to `CCOc1ccccc1Nc1nnc(SC(C)C(=O)Nc2nc(-c3ccccc3)cs2)s1` (stereo not given), for which the pIC50 was 5.94. Take `Cc1cc(N2CCOCC2)n2ncc(-c3ccccc3)c2n1`: the pIC50 is 5.51. On the same count and under the same terms, with `CCOc1ccc(CN(C)C(=O)CNC(=O)Cc2cccc3ccccc23)cc1` the figure was 6.77; with `COc1ccc(-c2csc(NC(=O)c3ccc(OCC(=O)N4CCOCC4)c(OC)c3)n2)cc1OC`, 5.99. `Cc1sc(NC(=O)Cc2ccc3c(c2)OCO3)nc1-c1ccc2c(c1)CCN2C(=O)c1ccccc1F`: the IC50 was > 32000 nM (inactive). For `Cc1cc(N2CCOCC2)n2nc(C)c(-c3ccccc3)c2n1`, the pIC50 is 6.66.

As to `CCOc1ccc(CCNC(=O)Cn2cccc2C(=O)c2ccccc2C)cc1OCC`, the pIC50 was 6.48. As to `CCOc1ccc(C(=O)OC(C)C(=O)Nc2nc(-c3ccc(CC)cc3)cs2)cc1OCC` (stereo not given), the pIC50 was more than 7.20. In the case of `COc1cc(NC(=O)c2cccs2)c(OC)cc1NC(=O)CCC(=O)Nc1cccc2ccccc12`, the pIC50 was 6.59. Regarding `Cc1ccc(C(=O)NCC(=O)NCCCc2ccccc2)cc1`, the IC50 is > 32000 nM (inactive).
